The source of these data is ChEMBL document CHEMBL6134912, “Novel Piperidine Substituted Pyrazolopyrimidine Derivatives as SGK1 Inhibitors for Treating Cardiovascular Diseases” (ACS Med Chem Lett, 2025).

The structures appear in SMILES notation. pIC50: −log10 of the molar value.

This assay addresses T1, Serine/threonine-protein kinase Sgk1 (Homo sapiens, UniProt O00141).
T1 sequence (O00141 whole entry): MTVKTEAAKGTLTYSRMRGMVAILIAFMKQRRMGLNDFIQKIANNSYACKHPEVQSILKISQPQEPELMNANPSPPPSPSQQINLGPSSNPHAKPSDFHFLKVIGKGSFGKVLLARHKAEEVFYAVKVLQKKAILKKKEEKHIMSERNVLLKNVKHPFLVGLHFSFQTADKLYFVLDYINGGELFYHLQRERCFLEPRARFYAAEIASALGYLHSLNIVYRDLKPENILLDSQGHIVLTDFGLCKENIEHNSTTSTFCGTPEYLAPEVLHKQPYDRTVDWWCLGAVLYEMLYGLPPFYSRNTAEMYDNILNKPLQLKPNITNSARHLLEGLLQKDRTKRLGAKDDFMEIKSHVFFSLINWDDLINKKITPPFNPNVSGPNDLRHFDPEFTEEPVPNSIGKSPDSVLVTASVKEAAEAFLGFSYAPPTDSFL
The assay is described as follows: Inhibition of GST-tagged human SGK1 using fluorescein labelled ATP-competitive probe by homogeneous time-resolved fluorescence (HTRF) binding assay. (Time-resolved FRET reads energy transfer from a long-lived donor to a nearby acceptor.)

What is called pIC50 is the IC50 on a negative log10 scale, so that one unit is a factor of ten. In the case of `Cc1nc(O[C@H]2CC[C@@H](NC3CCC3)CC2)c(C(=O)N[C@@H]2CCCN(c3nn(-c4ccc(C(N)=O)c(F)c4)c4ncnc(N)c34)C2)s1`, the negative-log IC50 (pIC50) is 8.40.

In turn, `CCC(CC)N[C@H]1CC[C@@H](Oc2nc(C)sc2C(=O)N[C@@H]2CCCN(c3nn(-c4ccc(C(N)=O)c(F)c4)c4ncnc(N)c34)C2)CC1` had a pIC50 of 8.52.

`Cc1nc(O[C@H]2CC[C@@H](NC(C)CO)CC2)c(C(=O)N[C@@H]2CCCN(c3nn(-c4ccc(C(N)=O)c(F)c4)c4ncnc(N)c34)C2)s1` (stereo partly specified) gave a pIC50 of 8.30.

Take `Cc1nc(O[C@H]2CC[C@@H](N3CCC3)CC2)c(C(=O)N[C@@H]2CCCN(c3nn(C4=CC(=O)OC4)c4ncnc(N)c34)C2)s1`: the pIC50 is 8.30.

As to `COc1cc(C(=O)N[C@@H]2CCCN(c3nn(-c4ccc(S(C)(=O)=O)cc4)c4ncnc(N)c34)C2)ccn1`, the pIC50 was 8.30.

The molecule `Cc1nc(O[C@H]2CC[C@@H](N(C)C)CC2)c(C(=O)N[C@@H]2CCCN(c3nn(-c4ccc(C(N)=O)c(F)c4)c4ncnc(N)c34)C2)s1` showed a pIC50 of 8.40.
